# In patent US12643903B2, “Bifunctional compounds for degradation of EGFR and related methods of use” (BeiGene, Ltd., priority 2020, dated 2026):
# Assays:
# Assay type in all cases: cell-based
# Details in all cases: 16 h treatment, EGFR degradation by HTRF
# [1] = biological target: T1, EGFR (Homo sapiens, UniProt P00533, DEL746-750); test: Cell Degradation 2: EGFR degradation in HCC827 cells, HTRF assay
# T1 construct: endogenous in cells; host or cells: HCC827
# Outline: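 DC50 values derive from four-parameter fits of percent inhibition versus concentration. The HTRF read-out (665/620 nm ratio, 337 nm excitation) followed 16 h compound exposure of HCC827 cells, 1 h lysis and overnight room-temperature incubation with the HTRF antibodies.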
# [2] = biological target: T2, EGFR (Homo sapiens, UniProt P00533, L858R/T790M); test: Cell Degradation 1: EGFR degradation in H1975 cells, HTRF assay
# T2 construct: endogenous in cells; host or cells: H1975
# T2 sequence (P00533 25-1210 T790M/L858R): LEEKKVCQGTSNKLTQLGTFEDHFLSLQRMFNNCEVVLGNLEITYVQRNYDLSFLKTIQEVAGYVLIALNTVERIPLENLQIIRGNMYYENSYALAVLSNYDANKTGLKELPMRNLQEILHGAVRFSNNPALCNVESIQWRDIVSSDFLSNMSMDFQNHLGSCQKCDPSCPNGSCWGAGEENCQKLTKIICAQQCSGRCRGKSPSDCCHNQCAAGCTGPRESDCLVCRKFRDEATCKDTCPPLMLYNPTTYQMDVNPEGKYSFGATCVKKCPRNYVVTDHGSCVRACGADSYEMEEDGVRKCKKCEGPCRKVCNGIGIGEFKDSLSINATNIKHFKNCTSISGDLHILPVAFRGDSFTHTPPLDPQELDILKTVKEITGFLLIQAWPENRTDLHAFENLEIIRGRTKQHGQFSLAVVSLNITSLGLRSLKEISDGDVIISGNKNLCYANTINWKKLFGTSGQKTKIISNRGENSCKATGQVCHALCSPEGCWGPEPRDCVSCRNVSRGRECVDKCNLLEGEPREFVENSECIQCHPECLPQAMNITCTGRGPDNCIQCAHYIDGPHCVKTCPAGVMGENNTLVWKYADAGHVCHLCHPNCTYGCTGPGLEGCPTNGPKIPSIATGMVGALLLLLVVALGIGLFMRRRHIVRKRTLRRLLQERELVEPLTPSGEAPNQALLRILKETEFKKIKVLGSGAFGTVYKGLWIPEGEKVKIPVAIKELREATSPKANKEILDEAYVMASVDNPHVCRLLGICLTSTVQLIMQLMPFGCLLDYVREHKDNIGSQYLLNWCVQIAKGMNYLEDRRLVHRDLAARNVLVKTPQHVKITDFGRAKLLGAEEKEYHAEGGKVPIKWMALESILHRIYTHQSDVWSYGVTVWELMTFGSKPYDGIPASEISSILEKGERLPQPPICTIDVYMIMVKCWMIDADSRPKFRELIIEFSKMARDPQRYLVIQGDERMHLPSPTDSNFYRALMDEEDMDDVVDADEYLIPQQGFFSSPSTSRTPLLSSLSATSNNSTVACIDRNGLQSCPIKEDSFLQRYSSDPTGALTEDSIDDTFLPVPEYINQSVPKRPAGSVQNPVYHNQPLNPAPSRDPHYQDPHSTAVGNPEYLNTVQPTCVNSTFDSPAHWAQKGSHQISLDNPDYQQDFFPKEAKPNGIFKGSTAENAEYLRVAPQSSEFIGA
# Outline: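 EGFR levels were read by HTRF (337 nm excitation, 665 and 620 nm emission) in lysates of H1975 cells exposed to compound for 16 h, with antibodies incubated overnight at room temperature. Fitting percent inhibition versus concentration to a Hill equation gave DC50.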
# [3] = system: EGFR DTC; test: Cell Degradation 3: EGFR degradation in BaF3 cells (DTC), HTRF assay
# Outline: (§1)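 BaF3 cells expressing EGFR (LTC triple mutant C797S/L858R/T790M or DTC) exposed to compounds for 16 h, 8 doses from 4-fold dilution, 0.2% DMSO. Residual EGFR quantified by HTRF in lysates (triple mutant lysate diluted 1:1); DC50 from four-parameter logistic fit.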
# [4] = biological target: T3, EGFR LTC (Homo sapiens, UniProt P00533, C797S/L858R/T790M); test: Cell Degradation 3: EGFR degradation in BaF3 cells (LTC), HTRF assay
# T3 construct: expressed in transfected cells; host or cells: BaF3
# T3 sequence (P00533 25-1210 T790M/C797S/L858R): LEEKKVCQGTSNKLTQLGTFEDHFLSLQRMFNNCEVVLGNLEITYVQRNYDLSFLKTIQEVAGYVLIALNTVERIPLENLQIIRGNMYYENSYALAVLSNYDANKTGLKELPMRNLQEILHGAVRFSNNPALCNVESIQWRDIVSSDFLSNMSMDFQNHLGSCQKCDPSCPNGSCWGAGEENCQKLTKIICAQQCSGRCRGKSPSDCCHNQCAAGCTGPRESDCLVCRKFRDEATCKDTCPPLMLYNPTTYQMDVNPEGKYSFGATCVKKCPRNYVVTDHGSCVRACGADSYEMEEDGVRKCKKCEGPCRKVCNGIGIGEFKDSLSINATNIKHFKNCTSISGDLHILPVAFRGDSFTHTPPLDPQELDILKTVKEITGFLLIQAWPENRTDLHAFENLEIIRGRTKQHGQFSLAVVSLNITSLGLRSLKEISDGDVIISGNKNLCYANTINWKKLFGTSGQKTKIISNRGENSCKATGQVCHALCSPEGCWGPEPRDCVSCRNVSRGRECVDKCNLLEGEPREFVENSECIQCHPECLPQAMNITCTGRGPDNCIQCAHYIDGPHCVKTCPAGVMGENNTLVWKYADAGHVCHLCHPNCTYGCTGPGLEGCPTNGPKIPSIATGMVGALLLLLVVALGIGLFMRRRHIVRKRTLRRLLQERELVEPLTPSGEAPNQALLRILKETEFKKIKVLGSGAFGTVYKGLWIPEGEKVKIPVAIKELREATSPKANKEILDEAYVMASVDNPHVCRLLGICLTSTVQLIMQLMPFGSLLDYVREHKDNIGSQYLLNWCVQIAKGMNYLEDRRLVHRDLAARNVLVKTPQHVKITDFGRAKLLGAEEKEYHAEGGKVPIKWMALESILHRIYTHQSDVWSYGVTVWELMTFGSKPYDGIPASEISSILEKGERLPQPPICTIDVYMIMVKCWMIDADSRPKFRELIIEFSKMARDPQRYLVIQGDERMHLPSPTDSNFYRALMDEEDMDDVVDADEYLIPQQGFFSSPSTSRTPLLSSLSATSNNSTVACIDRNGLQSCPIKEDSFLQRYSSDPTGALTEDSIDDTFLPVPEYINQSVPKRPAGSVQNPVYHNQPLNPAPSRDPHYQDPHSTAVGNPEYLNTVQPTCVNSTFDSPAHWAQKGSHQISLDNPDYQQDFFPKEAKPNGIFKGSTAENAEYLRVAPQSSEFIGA
# Outline: as §1
# T1 sequence (P00533 with tags, fused parts or gaps DEL746-750): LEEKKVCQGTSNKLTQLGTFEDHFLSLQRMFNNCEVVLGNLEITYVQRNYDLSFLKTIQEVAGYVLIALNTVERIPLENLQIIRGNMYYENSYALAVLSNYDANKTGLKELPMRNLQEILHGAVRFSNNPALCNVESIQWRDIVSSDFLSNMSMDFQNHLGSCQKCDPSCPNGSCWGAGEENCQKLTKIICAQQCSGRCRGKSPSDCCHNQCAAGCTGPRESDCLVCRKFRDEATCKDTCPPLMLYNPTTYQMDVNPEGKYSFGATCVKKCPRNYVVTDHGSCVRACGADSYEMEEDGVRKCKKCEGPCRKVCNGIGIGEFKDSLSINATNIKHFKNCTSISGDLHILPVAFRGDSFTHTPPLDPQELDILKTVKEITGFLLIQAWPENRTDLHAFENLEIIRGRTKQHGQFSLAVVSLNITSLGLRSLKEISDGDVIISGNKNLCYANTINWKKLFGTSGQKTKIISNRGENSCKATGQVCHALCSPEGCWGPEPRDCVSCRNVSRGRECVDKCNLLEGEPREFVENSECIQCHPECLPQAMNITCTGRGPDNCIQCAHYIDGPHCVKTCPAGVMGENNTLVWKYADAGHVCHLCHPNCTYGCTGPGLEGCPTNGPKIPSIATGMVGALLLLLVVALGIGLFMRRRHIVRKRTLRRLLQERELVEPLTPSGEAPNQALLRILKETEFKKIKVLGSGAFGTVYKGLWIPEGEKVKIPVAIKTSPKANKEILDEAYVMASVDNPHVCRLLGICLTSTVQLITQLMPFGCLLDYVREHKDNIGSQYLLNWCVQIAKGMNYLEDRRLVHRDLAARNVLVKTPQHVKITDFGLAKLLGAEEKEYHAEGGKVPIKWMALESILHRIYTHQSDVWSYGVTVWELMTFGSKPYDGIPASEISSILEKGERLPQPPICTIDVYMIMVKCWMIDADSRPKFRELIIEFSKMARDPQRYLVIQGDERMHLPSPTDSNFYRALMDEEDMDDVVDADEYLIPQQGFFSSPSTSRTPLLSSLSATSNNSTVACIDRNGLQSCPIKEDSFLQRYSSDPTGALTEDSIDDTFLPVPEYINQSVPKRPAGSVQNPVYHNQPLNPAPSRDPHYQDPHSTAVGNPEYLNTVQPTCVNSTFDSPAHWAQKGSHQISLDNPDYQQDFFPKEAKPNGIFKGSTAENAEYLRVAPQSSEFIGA
# T1 sequence (Q96SW2 whole entry partner): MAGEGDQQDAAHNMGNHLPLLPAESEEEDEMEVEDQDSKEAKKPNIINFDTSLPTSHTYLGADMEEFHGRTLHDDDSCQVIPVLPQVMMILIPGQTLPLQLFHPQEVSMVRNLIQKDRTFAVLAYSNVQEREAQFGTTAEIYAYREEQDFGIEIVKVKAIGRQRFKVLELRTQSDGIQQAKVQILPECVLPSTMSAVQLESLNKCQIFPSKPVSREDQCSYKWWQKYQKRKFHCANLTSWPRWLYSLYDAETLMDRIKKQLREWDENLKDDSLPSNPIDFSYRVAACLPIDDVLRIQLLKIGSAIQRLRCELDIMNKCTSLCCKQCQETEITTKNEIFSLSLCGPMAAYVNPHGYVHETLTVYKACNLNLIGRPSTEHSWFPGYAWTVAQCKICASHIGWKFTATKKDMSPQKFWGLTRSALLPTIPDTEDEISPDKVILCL
SMILES,DC50 [1] [nM],DC50 [2] [nM],DC50 [3] [nM],DC50 [4] [nM]
"COc1cc(N2CCN(CCC3CCN(c4ccc(C5CCC(=O)NC5=O)cc4)CC3)CC2)ccc1Nc1ncc(Cl)c(Nc2cccc3c2N(S(C)(=O)=O)CC3)n1 (centres unmarked) [Example 56, 3-(4-(4-(2-(4-(4-((5-chloro-4-((1-(methylsulfonyl)indolin-7-yl)amino)pyrimidin-2-yl)amino)-3-methoxyphenyl)piperazin-1-yl)ethyl)piperidin-1-yl)phenyl)piperidine-2,6-dione]",5.8,13.5,23.6,233
"CS(=O)(=O)N1CCc2cccc(Nc3nc(Nc4ccc(N5CCC(N6CCN(CCC7CCN(c8ccc(C9CCC(=O)NC9=O)cc8)CC7)CC6)CC5)c(F)c4)ncc3Cl)c21 (centres unmarked) [Example 79, 3-(4-(4-(2-(4-(1-(4-((5-chloro-4-((1-(methylsulfonyl)indolin-7-yl)amino)pyrimidin-2-yl)amino)-2-fluorophenyl)piperidin-4-yl)piperazin-1-yl)ethyl)piperidin-1-yl)phenyl)piperidine-2,6-dione]",5.5,6,49.6,84.6
"CS(=O)(=O)N1CCc2cccc(Nc3nc(Nc4ccc(N5CCC(N6CCN(C(=O)[C@@H]7CCN(c8ccc9c(c8)C(=O)N(C8CCC(=O)NC8=O)C9=O)C7)CC6)CC5)c(F)c4)ncc3Cl)c21 (stereo partly drawn) [Example 83, 5-((R)-3-(4-(1-(4-((5-chloro-4-((1-(methylsulfonyl)indolin-7-yl)amino)pyrimidin-2-yl)amino)-2-fluorophenyl)piperidin-4-yl)piperazine-1-carbonyl)pyrrolidin-1-yl)-2-(2,6-dioxopiperidin-3-yl)isoindoline-1,3-dione]",3,3.2,5.9,14.6
"COc1cc(N2CCC(N3CCN(C[C@@H]4CCN(c5ccc6c(c5)CN(C5CCC(=O)NC5=O)C6=O)C4)CC3)CC2)c(C)cc1Nc1ncc(Br)c(Nc2cccc3c2N(S(C)(=O)=O)CC3)n1 (stereo partly drawn) [Example 154, 3-(5-((S)-3-((4-(1-(4-((5-bromo-4-((1-(methylsulfonyl)indolin-7-yl)amino)pyrimidin-2-yl)amino)-5-methoxy-2-methylphenyl)piperidin-4-yl)piperazin-1-yl)methyl)pyrrolidin-1-yl)-1-oxoisoindolin-2-yl)piperidine-2,6-dione]",6,16,11,13
"CS(=O)(=O)N1CCc2cccc(Nc3nc(Nc4ccc(N5CCC(N6CCN(C(=O)CCN7CCN(c8ccc9c(c8)C(=O)N(C8CCC(=O)NC8=O)C9=O)CC7)CC6)CC5)c(F)c4)nc4[nH]ccc34)c21 (centres unmarked) [Example 15, 2-(2,6-dioxopiperidin-3-yl)-5-(4-(3-(4-(1-(2-fluoro-4-((4-((1-(methylsulfonyl)indolin-7-yl)amino)-7H-pyrrolo[2,3-d]pyrimidin-2-yl)amino)phenyl)piperidin-4-yl)piperazin-1-yl)-3-oxopropyl)piperazin-1-yl)isoindoline-1,3-dione]",9.2,10,35.8,68.3
"CS(=O)(=O)N1CCc2cccc(Nc3nc(Nc4ccc(N5CCC(N6CCN(CCC7CCN(c8ccc(C9CCC(=O)NC9=O)cc8)CC7)CC6)CC5)c(F)c4)nc4[nH]ccc34)c21 (centres unmarked) [Example 8, 3-(4-(4-(2-(4-(1-(2-fluoro-4-((4-((1-(methylsulfonyl)indolin-7-yl)amino)-7H-pyrrolo[2,3-d]pyrimidin-2-yl)amino)phenyl)piperidin-4-yl)piperazin-1-yl)ethyl)piperidin-1-yl)phenyl)piperidine-2,6-dione]",12.7,9.1,13.4,8.4
"CS(=O)(=O)N1CCc2cccc(Nc3nc(Nc4ccc(N5CCC(N6CCN(CC7CN(c8ccc9c(c8)C(=O)N(C8CCC(=O)NC8=O)C9=O)C7)CC6)CC5)c(F)c4)ncc3Cl)c21 (centres unmarked) [Example 76, 5-(3-((4-(1-(4-((5-chloro-4-((1-(methylsulfonyl)indolin-7-yl)amino)pyrimidin-2-yl)amino)-2-fluorophenyl)piperidin-4-yl)piperazin-1-yl)methyl)azetidin-1-yl)-2-(2,6-dioxopiperidin-3-yl)isoindoline-1,3-dione]",3.3,3.4,4.8,8
"COc1cc(N2CCC(N3CCN(CCC4CCN(c5ccc(C6CCC(=O)NC6=O)c(F)c5)CC4)CC3)CC2)ccc1Nc1ncc(Cl)c(Nc2cccc3c2N(S(C)(=O)=O)CC3)n1 (centres unmarked) [Example 36, 3-(4-(4-(2-(4-(1-(4-((5-chloro-4-((1-(methylsulfonyl)indolin-7-yl)amino)pyrimidin-2-yl)amino)-3-methoxyphenyl)piperidin-4-yl)piperazin-1-yl)ethyl)piperidin-1-yl)-2-fluorophenyl)piperidine-2,6-dione]",8.6,15.5,26.3,42.6
"CS(=O)(=O)N1CCc2cccc(Nc3nc(Nc4ccc(N5CCC(N6CCN(CCC7CCN(c8cc(F)c(C9CCC(=O)NC9=O)c(F)c8)CC7)CC6)CC5)c(F)c4)nc4[nH]ccc34)c21 (centres unmarked) [Example 67, 3-(2,6-difluoro-4-(4-(2-(4-(1-(2-fluoro-4-((4-((1-(methylsulfonyl)indolin-7-yl)amino)-7H-pyrrolo[2,3-d]pyrimidin-2-yl)amino)phenyl)piperidin-4-yl)piperazin-1-yl)ethyl)piperidin-1-yl)phenyl)piperidine-2,6-dione]",3.5,13.8,11.7,15.7
"CS(=O)(=O)N1CCc2cccc(Nc3nc(Nc4ccc(N5CCC(N6CCN(CCCC7CN(c8ccc9c(c8)C(=O)N(C8CCC(=O)NC8=O)C9=O)C7)CC6)CC5)c(F)c4)nc4[nH]ccc34)c21 (centres unmarked) [Example 19, 2-(2,6-dioxopiperidin-3-yl)-5-(3-(3-(4-(1-(2-fluoro-4-((4-((1-(methylsulfonyl)indolin-7-yl)amino)-7H-pyrrolo[2,3-d]pyrimidin-2-yl)amino)phenyl)piperidin-4-yl)piperazin-1-yl)propyl)azetidin-1-yl)isoindoline-1,3-dione]",10.8,6.03,16.7,24.2
"COc1cc(N2CCC(N3CCN(CCC4CCN(c5ccc6c(c5)C(=O)N(C5CCC(=O)NC5=O)C6=O)CC4)CC3)CC2)c(C)cc1Nc1ncc(Br)c(Nc2cccc3c2N(S(C)(=O)=O)CC3)n1 (centres unmarked) [Example 91, 5-(4-(2-(4-(1-(4-((5-bromo-4-((1-(methylsulfonyl)indolin-7-yl)amino)pyrimidin-2-yl)amino)-5-methoxy-2-methylphenyl)piperidin-4-yl)piperazin-1-yl)ethyl)piperidin-1-yl)-2-(2,6-dioxopiperidin-3-yl)isoindoline-1,3-dione]",6.4,3.5,14.9,39.9
